Patent US20240245641A1, “PHARMACEUTICAL COMPOSITION FOR PREVENTING OR TREATING DIABETES MELLITUS IN ANIMAL OF FAMILY CANIDAE, COMPRISING ENAVOGLIFLOZIN” (DAEWOONG PHARMACEUTICAL CO., LTD., priority 2021, published 2024)

Columns and labels:
[1] = system: dogs with insulin-dependent diabetes mellitus (type 1 diabetes mellitus); test: Evaluation of side effects after administration of enavogliflozin with insulin (disease activity index, cystitis, hypoglycemia); assay type: in vivo, dog
Procedure: (§1) This study evaluated the safety and efficacy of enavogliflozin along with insulin therapy in dogs with insulin-dependent diabetes mellitus (type 1 diabetes mellitus) as a prospective, open-label, non-randomized, multicenter, and proof-of-concept study. The efficacy and safety of enavogliflozin were evaluated at predetermined times during the treatment period.
(§2) Diabetic dogs meeting the following criteria were allowed to participate in a clinical trial: Small dogs under 15 years of age (less than 10 kg), medium-sized dogs under 13 years of age (11 to 22 kg), stable basal dose insulin therapy at least 1 month prior to the screening visit, post-insulin nadir (Nadir) blood glucose minimum of 200 mg/dl, and blood ketone levels less than 0.6 mmol/L.
(§3) However, diabetic dogs meeting the following criteria were excluded: Dogs with chronic kidney disease (CKD IRIS stage >2), hypotension evaluation, administration of diuretics or related drugs, confirmed pregnancy, and taking drugs affecting the test within 14 days prior to test start.
(§4) The study was performed for 8 weeks, and dogs participating in the clinical trial were divided into two groups, a TOD test group and a SID test group, according to the dose of enavogliflozin administered. Enavogliflozin was administered to the TOD test group and the SID test group at a dose of 0.025 mg/kg once every 3 days and once a day, respectively. For proper evaluation, the dogs were administered the drug with breakfast, and after dosing was completed, dogs underwent physical examinations such as blood pressure, blood tests and urine tests. Thereafter, researchers adjusted insulin doses to meet target blood glucose levels during monitoring (Nadir glucose levels, 80 to 150 mg/dl).
(§5) A primary evaluation variable was whether blood fructosamine levels decreased without developing severe hypoglycemia or diabetic ketoacidosis (DKA) after the animals were randomly divided into groups. […] The diagnosis of diabetic ketoacidosis was evaluated based on the presence of anion-gap metabolic acidosis associated with excessive ketogenesis without other causes. […]

[2] = system: dogs with insulin-dependent diabetes mellitus (type 1 diabetes mellitus); test: Evaluation of body weight and blood pressure after administration of enavogliflozin; assay type: in vivo, dog
Procedure: as §1, §2, §3, §4, §5

[3] = system: dogs with insulin-dependent diabetes mellitus (type 1 diabetes mellitus); test: Evaluation of renal function (blood and urine tests) after administration of enavogliflozin; assay type: in vivo, dog; details: after 8 weeks treatment, mean ± S.D
Procedure: as §1, §2, §3, §4
(§6) A primary evaluation variable was whether blood fructosamine levels decreased without developing severe hypoglycemia or diabetic ketoacidosis (DKA) after the animals were randomly divided into groups. A secondary evaluation variable was a change in fasting blood glucose levels, body weight and a mean bolus dose of insulin from baseline to 8 weeks. […] The diagnosis of diabetic ketoacidosis was evaluated based on the presence of anion-gap metabolic acidosis associated with excessive ketogenesis without other causes. Safety information including data on clinical and laboratory values and side effects was collected at each study visit.
(§7) Differences before and after drug administration within the groups were compared using the Student paired t-test or the Wilcoxon rank test. Furthermore, differences between groups after drug administration through a mixed ANOVA test were confirmed. Statistical analysis was performed with the R programming language (https://cran.r-project.org/) and GraphPad Prism version 7 (GraphPad Software, Inc., La Jolla, California). A p-value less than 0.05 was considered statistically significant.
Changes in renal function before and after administration of enavogliflozin were confirmed through blood and urine tests. Blood test items include blood urea nitrogen (BUN), creatinine, symmetric di-methyl-arginine (SDMA), cystatin-C, beta-2-microglobulin (B2M) and N-acetyl-β-d-glucosaminidase (NAG). Urinalysis items include urine specific gravity (USG) and urine protein to creatinine (UPC) ratio.

[4] = system: dogs with insulin-dependent diabetes mellitus (type 1 diabetes mellitus); test: Evaluation of metabolic acidosis after administration of enavogliflozin; assay type: in vivo, dog; details: for Anion Gap / HCO3 / Ketone (blood) / LDH / pH (venous blood gas): after 8 weeks treatment, mean ± S.D
Procedure: as §1, §2, §3, §4, §6, §7
In addition, when lactate dehydrogenase (LDH) was measured, there was no significant change in both test groups compared to before administration. Blood pH, bicarbonate (HCO3), and the anion gap were confirmed by a venous blood gas test, and there was no significant difference before and after administration (Table 4). […] In Table 4, all values are expressed as mean±S.D, and p-values less than 0.05 were considered statistically significant.

[5] = system: dogs with insulin-dependent diabetes mellitus (type 1 diabetes mellitus); test: Evaluation of lipid metabolism after administration of enavogliflozin; assay type: in vivo, dog; details: after 8 weeks treatment, mean ± S.D
Procedure: as §1, §2, §3, §4, §6, §7
Blood cholesterol was measured to confirm the effect of enavogliflozin on lipid metabolism. Changes in triglycerides and total cholesterol (T-Chol) were not statistically significant. […] In Table 5, all values are expressed as mean±S.D, and p-values less than 0.05 were considered statistically significant.

[6] = system: dogs with insulin-dependent diabetes mellitus (type 1 diabetes mellitus); test: Evaluation of regulation of blood glucose after 8 weeks of enavogliflozin with insulin; assay type: in vivo, dog
Procedure: as §1, §2, §3, §4, §6, §7
The regulation of blood glucose before and after administration was confirmed through blood tests (fructosamine and fasting glucose) and the daily insulin dose. […] However, fructosamine concentration was improved (p=0.041). […] In addition, as a result of comparing the difference between the test groups at 8 weeks, there was no significant difference in fasting blood glucose, fructosamine, and insulin reduction rate. However, there was a tendency towards a decrease in the SID test group taking enavogliflozin once a day compared to the TOD test group taking enavogliflozin once every 3 days (FIGS. 2A to 2C).

[7] = system: dogs with insulin-dependent diabetes mellitus (type 1 diabetes mellitus); test: Long-term effectiveness, enavogliflozin with insulin for up to 6 months; assay type: in vivo, dog
Procedure: In addition, long-term effectiveness was confirmed by additionally administering enavogliflozin to the companion dogs participating in the clinical trial at the same usage and dosage (SID or TOD) for up to 6 months.
as §7
Furthermore, as a result of confirming the long-term effectiveness by administering enavogliflozin at the same usage and dose for up to 6 months, fasting blood glucose, fructosamine and insulin reduction rate were improved in all SID/TOD test groups.

human SGLT2 = biological target: T1, human SGLT2 (Homo sapiens, UniProt P31639); details: disclosed in U.S. Patent Publication No. 2015/0152075; cited from earlier work
T1 sequence (P31639 1-672): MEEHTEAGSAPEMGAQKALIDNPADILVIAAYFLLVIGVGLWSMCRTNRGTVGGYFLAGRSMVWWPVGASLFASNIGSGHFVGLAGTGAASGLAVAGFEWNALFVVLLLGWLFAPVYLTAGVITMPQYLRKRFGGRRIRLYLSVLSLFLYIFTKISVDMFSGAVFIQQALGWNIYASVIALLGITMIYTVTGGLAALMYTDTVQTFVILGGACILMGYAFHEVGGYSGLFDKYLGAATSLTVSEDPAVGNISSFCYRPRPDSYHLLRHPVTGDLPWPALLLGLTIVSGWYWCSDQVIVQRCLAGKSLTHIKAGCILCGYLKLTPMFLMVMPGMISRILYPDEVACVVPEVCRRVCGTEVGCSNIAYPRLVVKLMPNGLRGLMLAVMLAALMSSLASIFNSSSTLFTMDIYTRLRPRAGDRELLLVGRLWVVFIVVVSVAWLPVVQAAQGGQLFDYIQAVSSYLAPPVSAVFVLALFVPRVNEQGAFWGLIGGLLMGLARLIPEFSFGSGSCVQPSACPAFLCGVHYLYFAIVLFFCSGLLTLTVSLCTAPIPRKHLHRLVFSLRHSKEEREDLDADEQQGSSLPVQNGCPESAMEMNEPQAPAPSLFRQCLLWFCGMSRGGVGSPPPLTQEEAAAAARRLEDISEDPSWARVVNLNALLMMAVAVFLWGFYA

[8] = both groups (TOD and SID), 0.025 mg/kg with insulin, 8 weeks
[9] = SID test group, 0.025 mg/kg once a day with insulin
[10] = TOD test group, 0.025 mg/kg once every 3 days with insulin
[11] = TOD test group, 0.025 mg/kg once every 3 days with insulin, 8 weeks
[12] = SID administration group, 0.025 mg/kg once a day with insulin, up to 6 months (p<0.0234)

SMILES: OC[C@H]1O[C@@H](c2cc(Cc3ccc(C4CC4)cc3)c(Cl)c3c2CCO3)[C@H](O)[C@@H](O)[C@@H]1O [enavogliflozin]
- new cases of bacterial cystitis ([1]; any test group (TOD, SID), 8 weeks): no new cases
- disease activity index (appetite, activity, stool status) ([1]; dog, in vivo): no difference between before and after administration
- severe hypoglycemia leading to loss of consciousness or seizures ([1]; dog, in vivo): no severe hypoglycemia
- Blood pressure (systolic), change after administration ([2]; SID test group, 0.025 mg/kg once a day with insulin, 8 weeks (p=0.033)): significantly reduced
- BCS (body condition score), change after administration [2, 8]: no difference
- Body weight, change after administration [2, 8]: tended to decrease
- BUN ([3]; SID test group (n = 8), 0.025 mg/kg once a day with insulin): 21.9 ± 6.8 mg/dL
- Creatinine [3, 9]: 0.6 ± 0.1 mg/dL
- Cystatin-C [3, 9]: 0.5 ± 0.1 mg/L
- NAG [3, 9]: 9.0±4.3 U/g
- SDMA [3, 9]: 7.8 ± 1.4 µg/dL
- UPC (urine protein to creatinine ratio) [3, 9]: 1.1±1.6
- USG (urine specific gravity) [3, 9]: 1.043±0.008
- BUN ([3]; TOD test group (n = 10), 0.025 mg/kg once every 3 days with insulin): 22.5 ± 11.7 mg/dL
- Creatinine [3, 10]: 0.9 ± 0.2 mg/dL
- Cystatin-C [3, 10]: 0.5 ± 0.2 mg/L
- NAG [3, 10]: 7.6±5.8 U/g
- SDMA [3, 10]: 9.2 ± 5.5 µg/dL
- UPC (urine protein to creatinine ratio) [3, 10]: 1.1±1.8
- USG (urine specific gravity) [3, 10]: 1.034±0.011
- Anion Gap [4, 9]: 13.2 ± 4.5 mmol/L
- HCO3 [4, 9]: 25.0 ± 2.5 mmol/L
- Ketone (blood) [4, 9]: 0.4 ± 0.1 mmol/L
- LDH [4, 9]: 230.8 ± 79.6 U/L
- pH (venous blood gas) [4, 9]: 7.4 ± 0.1
- Anion Gap [4, 10]: 12.0 ± 4.2 mmol/L
- HCO3 [4, 10]: 24.3 ± 3.6 mmol/L
- Ketone (blood) [4, 10]: 0.2 ± 0.1 mmol/L
- LDH [4, 10]: 444.5 ± 584.7 U/L
- pH (venous blood gas) [4, 10]: 7.4 ± 0.1
- diabetic ketoacidosis ([4]; both test groups, eight weeks after administration): did not occur
- Lipase [5, 9]: 226.8 ± 215.0 U/L
- T-Chol (total cholesterol) [5, 9]: 261.3 ± 150.5 mg/dL
- Triglyceride [5, 9]: 515.2 ± 977.9 mg/dL
- Lipase [5, 10]: 197.3 ± 230.1 U/L
- T-Chol (total cholesterol) [5, 10]: 327.6 ± 114.7 mg/dL
- Triglyceride [5, 10]: 384.9 ± 425.3 mg/dL
- daily insulin dose ([6]; SID test group, 0.025 mg/kg once a day with insulin, after 8 weeks (before: 2.0±0.8)): 1.5±0.5 units/kg/day
- fasting blood glucose ([6]; SID test group, 0.025 mg/kg once a day with insulin, after 8 weeks (before: 330.8±118.0; p=0.0078)): 215.5 ± 126.2 mg/dL
- fructosamine levels ([6]; SID test group, 0.025 mg/kg once a day with insulin, after 8 weeks (before: 475.3±107.6; p=0.034)): 393.1 ± 122.9 µmol/L
- daily insulin dose, change before/after administration [6, 11]: decreased, but the difference was not statistically significant
- fasting blood glucose, change before/after administration [6, 11]: decreased, but the difference was not statistically significant
- fructosamine concentration, change before/after administration ([6]; TOD test group, 0.025 mg/kg once every 3 days with insulin, 8 weeks (p=0.041)): improved
- fasting blood glucose, 6 months [7, 12]: statistically significant reduction
- insulin reduction rate, 6 months [7, 12]: statistically significant reduction
- fructosamine, 6 months ([7]; TOD test group, 0.025 mg/kg once every 3 days with insulin, up to 6 months (p<0.0313)): statistically significant reduction
- fasting blood glucose, fructosamine and insulin reduction rate, 6 months ([7]; all SID/TOD test groups, 0.025 mg/kg with insulin, up to 6 months): improved
- inhibitory effect on human SGLT2 activity (human SGLT2): excellent inhibitory effect
